According to PMC7179297, “Preclinical Antimalarial Combination Study of M5717, a Plasmodium falciparum Elongation Factor 2 Inhibitor, and Pyronaridine, a Hemozoin Formation Inhibitor” (Antimicrobial Agents and Chemotherapy, 2020):
pEC50: −log10 of the molar value. Like-named read-outs stand apart in the source and are kept apart here.

Assays:
[1] = Pharmacokinetic analysis in blood of mice from the efficacy study; type: in vivo; details: for AUC(0-inf) / half-life: NOD-scid IL-2Rγnull, mouse, whole blood, po; for AUC(0-inf): mean ± SD; for half-life / pharmacokinetics in combination versus single-agent treatment / half-life (t1/2): mice; for half-life / half-life (t1/2): administered alone, single oral dose; for half-life: read-out: half-life (t1/2) (converted); for pharmacokinetics in combination versus single-agent treatment: Cmax, AUC0-inf and t1/2, entries 8 to 11
Protocol: The test compounds’ concentrations in blood were assessed in order to determine pharmacokinetic parameters in mice from the efficacy study. Peripheral blood samples (20 μl) were sampled at different time points (1, 2, 4, 6, 24, 48, 72, 96, 168, and 216 h post treatment), mixed with 20 μl of H2O Milli Q and immediately frozen on dry ice. Samples were stored at –80°C until analysis. Blood from control mice was used for bioanalysis calibration and QC purposes. For liquid chromatography with tandem mass spectrometry (LC-MS/MS) analysis, the frozen samples were thawed and treated with two volumes equivalent of acetonitrile containing the internal standard. After centrifugation, one volume equivalent of supernatant was diluted with one volume equivalent of water containing heptafluorobutyric acid (HFBA). The extracts were analyzed by LC-MS/MS (quantification by HESI ionization in positive ion mode) performed at Swiss BioQuant AG (Switzerland). A noncompartmental analysis was performed to determine pharmacokinetic parameters using the Phoenix WinNonlin program (version 6.3).
56 Pharmacokinetic parameters
57 The pharmacokinetic analysis was performed non-compartmentally using the extravascular model. For the analysis,
58 concentrations below the LLOQ were set to 0. The following pharmacokinetic parameters of the analytes were
59 derived from the concentration-time profiles.
C0 The pre-dose concentration assumed to be 0 on the day of oral dosing.
tmax Time where the concentration in matrix is the highest.
Cmax/dose Cmax normalized to the dose of 1 mg/kg.
AUC0-t Area under the matrix concentration -time curve from 0 h to time t calculated using
the linear trapezoidal rule , using C0 as defined above.
AUC0-∞ Area under the matrix concentration -time curve from 0 h to infinity calculated using
AUC0-∞/dose AUC0-∞ normalized to a dose of 1 mg/kg.
61 Software for calculations: Phoenix WinNonlin program (version 6.3).
62 All concentration values and pharmacokinetic parameters were rounded to 3 significant digits.
63 The numbers listed for %bias and %CV were rounded to 1 decimal place.

[2] = tested on: P. falciparum NF54 strain; experiment: [3H]hypoxanthine incorporation assay, individual drugs; type: cell-based; details: Plasmodium falciparum, 72 h
Protocol: IC50 and drug interaction studies were performed as previously described ([27], [28]). […] Cultures were harvested onto glass fiber filters, washed, and the radioactivity was counted using a MicroBetaplate liquid scintillation counter and recorded as counts per minute (cpm) per well. Results are expressed as a percentage of the untreated controls (see the supplemental material for more details). page 2: 25 In vitro isobolograms 26 Compounds were tested against intraerythrocytic forms of P. falciparum derived from asynchronous stock cultures 27 of lab strain NF54 (Schiphol airport strain of unknown origin), as previously described.i,ii The culture medium was […] 29 mM HEPES, 25 mM NaHCO3 (pH 7.3), 0.36 mM hypoxanthine and 100 μg/mL neomycin. Human type A+ 30 erythrocytes served as host cells. […] 31 in humidified modular chambers. Testing of the individual drugs was carried out in 96-well microtiter plates. The 32 compounds were dissolved in DMSO (10 mg/mL), prediluted in hypoxanthine-free culture medium and titrated in […] After addition of an equal volume of parasite culture with a parasitemia of […] Parasite growth was measured by the incorporation of radiolabelled [3H]hypoxanthine (0.25 µCi in […] 37 assay duration) prior to the termination of the test. Cultures were harvested onto glass-fiber filters and washed with 38 distilled water. The radioactivity was counted using a MicroBetaplate liquid scintillation counter (Wallac, Zürich, 39 Switzerland) and the results recorded as counts per minute (cpm) per well at each drug concentration and expressed 40 as percentage of the untreated controls. Fifty percent inhibitory concentrations (IC50) were determined by linear 41 interpolation.v 42 43 For data interpretation, the IC50s of the drugs in combination were expressed as fractions of the IC50s of the drugs 44 alone. These fractions were called “Fractional Inhibitory Concentrations” (FIC) for drug A and for drug B, 45 respectively. 46 FIC Drug A = IC50 A (B) IC50 A […] 49 50 Formulation 51 Pyronaridine (tetraphosphate salt) and […] (succinate salt) were solubilized in a vehicle consisting of 70% […] 54 55 2

O=C(NCCN1CCCC1)c1cc(-c2ccc(CN3CCOCC3)cc2)nc2ccc(F)cc12 [M5717]
AUC(0-inf) ([1]; 3 mg/kg, M5717 3 mg/kg single oral dose (entry 1), read-out: M5717 exposure AUC0-inf): 1570 ng·h/mL
AUC(0-inf) ([1]; 6 mg/kg, M5717 6 mg/kg single oral dose (entry 2), read-out: M5717 exposure AUC0-inf): 3390 ng·h/mL
AUC(0-inf) ([1]; 12 mg/kg, M5717 12 mg/kg + pyronaridine 12 mg/kg single oral dose (entry 10), read-out: M5717 exposure AUC0-inf): 6650 ng·h/mL
AUC(0-inf) ([1]; 12 mg/kg, M5717 12 mg/kg single oral dose (entry 3), read-out: M5717 exposure AUC0-inf): 6160 ng·h/mL
AUC(0-inf) ([1]; 30 mg/kg, M5717 30 mg/kg single oral dose (entry 4), read-out: M5717 exposure AUC0-inf): 16900 ng·h/mL
AUC(0-inf) ([1]; M5717 3 mg/kg + pyronaridine 6 mg/kg single oral dose (entry 8), read-out: M5717 exposure AUC0-inf): 1360 ng·h/mL
AUC(0-inf) ([1]; M5717 6 mg/kg + pyronaridine 36 mg/kg single oral dose (entry 11), read-out: M5717 exposure AUC0-inf): 2980 ng·h/mL
AUC(0-inf) ([1]; M5717 12 mg/kg + pyronaridine 6 mg/kg single oral dose (entry 9), read-out: M5717 exposure AUC0-inf): 6400 ng·h/mL
half-life [1]: ~37 h
pharmacokinetics in combination versus single-agent treatment [1]: unchanged
half-life (t1/2) [1]: 37 h
pEC50 [2]: 9.52

COc1ccc2nc3cc(Cl)ccc3c(Nc3cc(CN4CCCC4)c(O)c(CN4CCCC4)c3)c2n1 [pyronaridine]
AUC(0-inf) ([1]; 6 mg/kg, pyronaridine 6 mg/kg single oral dose (entry 5), read-out: Pyronaridine exposure AUC0-inf): 6560 ng·h/mL
AUC(0-inf) ([1]; 12 mg/kg, M5717 12 mg/kg + pyronaridine 12 mg/kg single oral dose (entry 10), read-out: Pyronaridine exposure AUC0-inf): 12100 ng·h/mL
AUC(0-inf) ([1]; 12 mg/kg, pyronaridine 12 mg/kg single oral dose (entry 6), read-out: Pyronaridine exposure AUC0-inf): 14500 ng·h/mL
AUC(0-inf) ([1]; 36 mg/kg, pyronaridine 36 mg/kg single oral dose (entry 7), read-out: Pyronaridine exposure AUC0-inf): 55600 ng·h/mL
AUC(0-inf) ([1]; M5717 3 mg/kg + pyronaridine 6 mg/kg single oral dose (entry 8), read-out: Pyronaridine exposure AUC0-inf): 8500 ng·h/mL
AUC(0-inf) ([1]; M5717 6 mg/kg + pyronaridine 36 mg/kg single oral dose (entry 11), read-out: Pyronaridine exposure AUC0-inf): 58200 ng·h/mL
AUC(0-inf) ([1]; M5717 12 mg/kg + pyronaridine 6 mg/kg single oral dose (entry 9), read-out: Pyronaridine exposure AUC0-inf): 8490 ng·h/mL
half-life [1]: ~74 h
pharmacokinetics in combination versus single-agent treatment [1]: No change
half-life (t1/2) [1]: 74 h
pEC50 [2]: 8.46
